Counter-ions that a name gives are not always drawn.
Experiments:
[1] = target: T1, human catalytic MMP3, MMP3(100-265) (Homo sapiens, UniProt P08254); test: Catalytic MMP3 enzyme assay (fluorogenic peptide M2110); type: biochemical
T1 construct: Catalytic MMP3 was amino acids 100-265 of human MMP3 from UniProtKB/Swiss-Prot P08254; 6x-Histidine tag (C); made in house; host or cells: E. coli
Description: Compounds were assessed for inhibition of human catalytic MMP3, MMP3(100-265) (SEQ ID NO:8), using a peptide (Mca-RPKPVE-Nva-WRK(Dnp)-NH2, Bachem M2110) that fluoresces upon cleavage by catalytic MMP3. […] The reaction volume was 100 μL. […] Final concentrations employed were 20 nM catalytic MMP3 and 20 μM M2110 substrate.

[2] = target: T2, human catalytic MMP9 (Homo sapiens, UniProt P14780); test: Catalytic MMP9 enzyme assay (fluorogenic peptide P-126); type: biochemical
T2 construct: purchased BioMol SE-244
Description: The assay buffer employed was 50 mM Hepes, pH 7.5, 10 mM CaCl2, 0.05% Brij-35. DMSO was included at a final concentration of 2%, arising from the test compound addition. The reaction volume was 100 μL. […] Initial velocities were plotted by use of a four-parameter logistics equation (GraphPad Prism® software) for determination of IC50, if required.

[3] = target: T3, full-length proMMP9(1-707) activation by catalytic MMP3 (Homo sapiens, UniProt P14780, R574P); test: proMMP9/MMP3 P126 Activation Assay; type: biochemical; parameters: made in house; host or cells: E. coli (MMP3); details: proMMP9 from HEK293 cells
Description: The assay buffer employed was 50 mM Hepes, pH 7.5, 10 mM CaCl2, 0.05% Brij-35. DMSO was included at a final concentration of 2%, arising from the test compound addition. […] The reaction volume was 50 μL. […] Initial velocities were plotted by use of a four-parameter logistics equation (GraphPad Prism® software) for determination of IC50.

[4] = target: T4, proMMP9(20-445;ΔFnII) (SEQ ID NO:6) (Homo sapiens, UniProt P14780, DEL216-390); test: ThermoFluor binding assay with proMMP9(20-445;ΔFnII)
T4 construct: amino acid pairs including: 29-215/391-444, 67-215/391-444, and 20-215/391-445, respectively; start methionine (N); made in house; host or cells: E. coli BL21(DE3) RIL
T4 sequence (P14780 with tags, fused parts or gaps DEL216-390): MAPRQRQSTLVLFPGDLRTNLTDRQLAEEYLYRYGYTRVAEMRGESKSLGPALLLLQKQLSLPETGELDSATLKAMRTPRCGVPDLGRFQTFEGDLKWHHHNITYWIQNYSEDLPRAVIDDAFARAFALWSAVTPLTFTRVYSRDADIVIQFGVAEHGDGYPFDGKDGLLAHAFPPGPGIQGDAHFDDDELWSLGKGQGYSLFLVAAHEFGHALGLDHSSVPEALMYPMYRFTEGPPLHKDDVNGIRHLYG
Summary of the method: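 Thermal shift with 1,8-ANS dye, heating from 40 to 90 °C at 1 °C/min. Fluorescence excited at 380–400 nm and read at 500±25 nm. Protein was buffer-exchanged by desalting, and binding fitted using heat capacity and thermodynamic parameters from DSC and ThermoFluor dosing data, with DMSO reference wells.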

[5] = target: T5, proMMP9(67-444;ΔFnII) (SEQ ID NO:5) (Homo sapiens, UniProt P14780, DEL216-390); test: ThermoFluor binding assay with proMMP9(67-444;ΔFnII)
T5 construct: amino acid pairs including: 29-215/391-444, 67-215/391-444, and 20-215/391-445, respectively; start methionine (N); made in house; host or cells: E. coli BL21(DE3) RIL
T5 sequence (P14780 with tags, fused parts or gaps DEL216-390): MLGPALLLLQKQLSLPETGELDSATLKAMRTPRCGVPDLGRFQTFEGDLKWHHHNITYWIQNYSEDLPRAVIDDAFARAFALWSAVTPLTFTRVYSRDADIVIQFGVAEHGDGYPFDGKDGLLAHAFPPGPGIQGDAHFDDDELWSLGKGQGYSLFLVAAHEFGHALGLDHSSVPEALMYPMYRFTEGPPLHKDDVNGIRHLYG
Summary of the method: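 Thermal shift (ThermoFluor) with 1,8-ANS dye; protein desalted by buffer exchange before use. Samples heated 40 to 90 °C at 1 °C/min, excitation 380-400 nm, emission 500±25 nm. Binding fitted using unfolding thermodynamic parameters from DSC and ThermoFluor dosing data.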

[6] = target: T6, proMMP13(1-268) (SEQ ID NO:7) (Homo sapiens, UniProt P45452); test: ThermoFluor binding assay with proMMP13(1-268)
T6 construct: 6x-histidine tag (C); made in house; host or cells: HEK293
Description: The ThermoFluor® (TF) assay is a 384-well plate-based binding assay that measures thermal stability of proteins (Biomol Screen 2001, 6, 429-40; Biochemistry 2005, 44, 5258-66). The experiments were carried out using instruments available from Johnson & Johnson Pharmaceutical Research & Development, LLC. TF dye used in all experiments was […] (1,8-ANS) (Invitrogen: A-47).
Compounds were arranged in a pre-dispensed plate (Greiner Bio-one: 781280), wherein compounds were serially diluted in 100% DMSO across 11 columns within a series. Columns 12 and 24 were used as DMSO reference and contained no compound. For multiple compound concentration-response experiments, the compound aliquots ([…]) were robotically predispensed directly into black 384-well polypropylene PCR microplates (Abgene: TF-0384/k) using a Cartesian Hummingbird liquid handler (DigiLab, Holliston, Mass.). Following compound dispense, protein and dye solutions were added to achieve the final assay volume of 3 μL. The assay solutions were overlayed with 1 μL of silicone oil (Fluka, type DC 200: 85411) to prevent evaporation.
Assay plates were robotically loaded onto a thermostatically controlled PCR-type thermal block and then heated from 40 to 90° C. at a ramp-rate of 1° C./min for all experiments. Fluorescence was measured by continuous illumination with UV light (Hamamatsu LC6) supplied via fiber optics and filtered through a band-pass filter (380-400 nm; >6 OD cutoff). Fluorescence emission of the entire 384-well plate was detected by measuring light intensity using a CCD camera (Sensys, Roper Scientific) filtered to detect 500±25 nm, resulting in simultaneous and independent readings of all 384 wells. A single image with 20-sec exposure time was collected at each temperature, and the sum of the pixel intensity in a given area of the assay plate was recorded vs temperature and fit to standard equations to yield the Tm (J Biomol Screen 2001, 6, 429-40).
Thermodynamic parameters necessary for fitting compound binding for each proMMP were estimated by differential scanning calorimetry (DSC) and from ThermoFluor® data. The heat capacity of unfolding for each protein was estimated from the molecular weight and from ThermoFluor® dosing data.
The proMMP13(1-268) (SEQ ID NO:7) protein sample preparations included a desalting buffer exchange step via a PD-10 gravity column (GE Healthcare). The desalting buffer exchange was performed prior to diluting the protein to the final assay concentration of 3.5 μM. The concentration of proMMP13(1-268) (SEQ ID NO:7) was estimated spectrophotometrically based on a calculated extinction coefficient of ε280=37000 M^−1 cm^−1, a calculated molecular weight of 30.8 kDa, and calculated pI of 5.33. ThermoFluor® reference conditions were defined as follows: 100 μg/mL proMMP13(1-268) (SEQ ID NO:7), 25 μM 1,8-ANS, pH 7.0 Buffer (50 mM HEPES pH 7.0, 100 mM NaCl, 0.001% Tween-20, 2.5 mM MgCl2, 300 μM CaCl2). The thermodynamic parameters for proMMP13(1-268) (SEQ ID NO:7) are as follows: Tm (° C.)=67 (+/−0.1), ΔUH(Tm) (cal mol^−1)=107000(+/−5000), ΔUS(Tm) (cal mol^−1 K^−1)=318, ΔUCp (cal mol^−1 K^−1)=2600.

[7] = target: T3, full-length proMMP9(1-707) activation by catalytic MMP3; test: ProMMP9/MMP3 DQ Gelatin Activation Assay;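 further: readout is fluorescence of quenched fluorescein gelatin cut by activated MMP9, 30 min activation at 37 °C, inhibition relative to DMSO-only controls with EDTA as blank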; type: biochemical; parameters: made in house; host or cells: COS-1 (proMMP9); E. coli (MMP3); details: proMMP9 from COS-1 cells; read-out: ProMMP9/MMP3 DQ gel, IC50
Description: Compounds were assessed for inhibition of proMMP9 activation by catalytic MMP3 using a quenched fluorescein gelatin substrate (DQ gelatin, Invitrogen D12054) that fluoresces upon cleavage by activated MMP9. The assay buffer employed was 50 mM Hepes, pH 7.5, 10 mM CaCl2, 0.05% Brij-35. DMSO was included at a final concentration of 0.2%, arising from the test compound addition. […] Test compounds in DMSO were diluted 250-fold in assay buffer at 4× the final concentration. The reaction volume was 12 μL, and all reactions were conducted in triplicate. […] The plate was sealed and incubated for 30 min at 37° C. […] Immediately following the 30 min incubation, 4 μL of 40 μg/ml DQ gelatin substrate was added (freshly diluted in assay buffer), and incubated for 10 min at room temperature. […] Reactivity of residual MMP3 towards DQ gelatin was minimal under these conditions. Percent inhibition of test compounds were determined from suitable positive (DMSO only in assay buffer) and negative (EDTA added prior to reaction initiation) controls. Plots of % inhibition vs. test compound concentration were fit to a four-parameter logistics equation (GraphPad Prism® software) for determination of IC50.

T3 sequence (P14780 20-707 R574P): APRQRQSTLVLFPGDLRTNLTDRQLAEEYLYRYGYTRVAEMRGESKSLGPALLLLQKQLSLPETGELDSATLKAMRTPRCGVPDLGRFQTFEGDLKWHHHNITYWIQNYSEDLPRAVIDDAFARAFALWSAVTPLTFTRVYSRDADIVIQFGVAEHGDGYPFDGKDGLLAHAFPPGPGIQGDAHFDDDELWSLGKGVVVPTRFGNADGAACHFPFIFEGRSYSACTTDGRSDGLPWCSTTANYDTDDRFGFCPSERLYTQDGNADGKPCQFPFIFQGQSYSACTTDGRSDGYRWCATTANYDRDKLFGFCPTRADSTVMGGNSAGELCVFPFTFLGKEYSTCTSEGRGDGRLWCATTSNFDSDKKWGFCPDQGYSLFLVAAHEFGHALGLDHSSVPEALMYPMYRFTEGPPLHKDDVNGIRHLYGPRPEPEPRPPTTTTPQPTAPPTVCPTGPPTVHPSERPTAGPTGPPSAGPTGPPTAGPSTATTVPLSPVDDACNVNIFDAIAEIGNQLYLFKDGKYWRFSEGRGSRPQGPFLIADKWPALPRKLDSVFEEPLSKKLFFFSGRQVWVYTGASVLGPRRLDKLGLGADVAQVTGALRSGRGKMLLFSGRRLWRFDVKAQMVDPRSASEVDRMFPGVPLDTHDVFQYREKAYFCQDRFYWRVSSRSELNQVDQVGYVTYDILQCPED
T2 sequence (P14780 107-445 limits assumed): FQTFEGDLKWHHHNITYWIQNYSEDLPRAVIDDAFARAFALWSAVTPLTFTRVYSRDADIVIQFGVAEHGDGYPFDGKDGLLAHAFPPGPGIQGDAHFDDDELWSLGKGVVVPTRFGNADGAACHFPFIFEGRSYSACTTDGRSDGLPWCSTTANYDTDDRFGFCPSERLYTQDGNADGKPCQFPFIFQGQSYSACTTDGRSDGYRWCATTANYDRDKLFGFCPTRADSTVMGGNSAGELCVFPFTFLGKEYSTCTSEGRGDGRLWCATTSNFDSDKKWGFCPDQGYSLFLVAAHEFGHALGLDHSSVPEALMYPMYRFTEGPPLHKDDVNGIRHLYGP
T1 sequence (P08254 with tags, fused parts or gaps): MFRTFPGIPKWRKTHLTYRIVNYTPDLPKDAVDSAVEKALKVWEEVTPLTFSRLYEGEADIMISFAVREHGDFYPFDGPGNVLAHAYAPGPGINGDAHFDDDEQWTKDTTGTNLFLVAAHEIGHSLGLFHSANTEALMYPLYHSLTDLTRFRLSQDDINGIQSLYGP

| SMILES | IC50 [1] [µM] | IC50 [2] [µM] | IC50 [3] [µM] | Kd [4] [µM] | Kd [5] [µM] | Kd [6] [µM] | IC50 [7] [µM] |
| --- | --- | --- | --- | --- | --- | --- | --- |
| COc1ccc(F)cc1Nc1nc(-c2sc(N)nc2C)cs1 [Example 4, N^2-(5-Fluoro-2-methoxy-phenyl)-4′-methyl-[4,5′]bithiazolyl-2,2′-diamine.HBr] | > 50 | > 50 | 1.5 | 1.7 | 0.254 | – | – |
| CC(=O)Nc1nc(C)c(-c2csc(Nc3cc(F)ccc3OC(C)C)n2)s1 [Example 12, N-[2-(5-Fluoro-2-isopropoxy-phenylamino)-4′-methyl-[4,5′]bithiazolyl-2′-yl]-acetamide] | – | – | 3.6 | 13.8 | 2.92 | 12 | – |
| Cc1nc(C)c(-c2csc(Nc3cc(F)ccc3OC(C)C)n2)s1 [Example 13, (2′,4′-Dimethyl-[4,5′]bithiazolyl-2-yl)-(5-fluoro-2-isopropoxy-phenyl)-amine] | – | – | ~2 | > 95 | > 95 | > 95 | – |
| COc1ccc(F)cc1Nc1nc(-c2cccnc2)cs1 [Example 16, (5-Fluoro-2-methoxy-phenyl)-(4-pyridin-3-yl-thiazol-2-yl)-amine.HBr] | – | – | 3.6 | > 95 | 8.9 | > 95 | – |
| COc1ccc(Br)cc1Nc1nc(-c2sc(NC(C)=O)nc2C)cs1 [Example 21, N-[2-(5-Bromo-2-methoxy-phenylamino)-4′-methyl-[4,5′]bithiazolyl-2′-yl]-acetamide.HBr] | – | – | 2.8 | 4.48 | 0.14 | 3.57 | – |
| COc1ccccc1Nc1nc(-c2sc(NS(C)(=O)=O)nc2C)cs1 [Example 34, N-[2-(2-Methoxy-phenylamino)-4′-methyl-[4,5′]bithiazolyl-2′-yl]-methanesulfonamide] | – | – | 4 | 3.64 | 0.82 | 43.5 | 2.3 |
| COc1ccccc1Nc1nc(-c2sc(C)cc2C)cs1 [Example 45, [4-(3,5-Dimethyl-thiophen-2-yl)-thiazol-2-yl]-(2-methoxy-phenyl)-amine.TFA] | – | – | > 50 | 1.65 | 10 | > 95 | > 20 |
| COc1ccc(Cl)cc1Nc1nc(-c2sc(NC(C)=O)nc2C)cs1 [Example 59, N-[2-(5-Chloro-2-methoxy-phenylamino)-4′-methyl-[4,5′]bithiazolyl-2′-yl]-acetamide] | > 50 | > 50 | 0.52 | 29.2 | 0.583 | – | 0.34 |
| COc1ccccc1Nc1nc(-c2sc(NC(C)=O)nc2C)cs1 [Example 65, N-[2-(2-Methoxy-phenylamino)-4′-methyl-[4,5′]bithiazolyl-2′-yl]-acetamide] | > 50 | – | – | – | – | 37.5 | – |
| COc1ccc(Cl)cc1Nc1nc(-c2sc(N)nc2C)cs1 [Example 67, N^2-(5-Chloro-2-methoxy-phenyl)-4′-methyl-[4,5′]bithiazolyl-2,2′-diamine] | > 50 | > 50 | 2.1 | 2.43 | 0.318 | – | – |
| COc1ccccc1Nc1nc(-c2sc(N)nc2C)cs1 [Example 68, N^2-(2-Methoxy-phenyl)-4′-methyl-[4,5′]bithiazolyl-2,2′-diamine] | – | – | 2.5 | 3.76 | 1.12 | 14.5 | 3.1 |
| Brc1ccc(Nc2nc(-c3cccnc3)cs2)cn1 [Example 70, (6-Bromo-pyridin-3-yl)-(4-pyridin-3-yl-thiazol-2-yl)-amine] | – | – | > 20 | 5.79 | 12 | 0.668 | – |

— US20120302573A1, “METHODS OF INHIBITING PRO MATRIX METALLOPROTEINASE ACTIVATION” (priority 2011, published 2012)
